Read-outs that look alike come from different tables or passages of the source.
How the values were obtained:
Type in all cases: cell-based
[1] = test system: 7 human tumor cell lines; assay: modified MTT method, summary over the panel of human tumor cell lines; conditions: on HL-60, K562, MKN-28
Source text: (§1) HL-60: (human promyelocytic leukemia cell line); K562 (human chronic myelocytic leukemia cell line); HT-29 (human colon cancer cell line); PC-3 (human prostate cancer cell line); A549 (human non-small cell lung cancer cell line); MKN-28 (human gastric cancer cell line); Hep2 (human laryngeal cancer cell line), all of which were purchased from Cell Bank of Shanghai Institutes for Biological Sciences, the Chinese Academy of Sciences.
(§2) Influence of the five test samples on the proliferation of 7 human tumor cell lines was determined via a modified MTT method.
Cells in logarithmic growth phase were taken, adjusted to a certain concentration and then added into a 96 well culture plate. After culture of adherent cells for a period until adherence, the test samples were added; and for suspension cells, the test samples were added after inoculation. […] After dissolving in uniformity, it was continued to be placed in the incubator at 37°C, 5% CO2 for a period of time, and the OD value of each well was determined under a wavelength of 570 nm with a microplate reader, according to which the results were calculated.
(§3) The inhibition rate was calculated by using Microsoft Excel 2003, and median inhibitory concentration IC50 was calculated with a LOGIT method, which was used as an indicator for judging the inhibitory capability.

[2] = test system: Hep2 cells; assay: modified MTT method, proliferation of Hep2 cells; conditions: Homo sapiens, HEp-2, 72 h, secondary screening
Procedure: (§4) Five test concentrations 2, 10, 50, 250 and 500 µM were set for each of five derivatives of artemisinin, artemether drug substance, artemisinin, dihydroartemisinin, artesunate were dissolved with dimethyl sulfoxide (DMSO), while the lyophilized powder of artemether was dissolved with normal saline (N.S.), followed by addition of a certain amount of RPMI 1640 complete culture solution to formulate a high-concentration solution, and each of the low-concentration solutions was formulated by proportionate dilution from the high-concentration solution.
(§5) The concentrations of DMSO contained in the solutions at the two relatively high concentrations 500 and 250 µM for the artemether drug substance, artemisinin, dihydroartemisinin, artesunate, used as solvent controls, were formulated with […] culture solution, at which time the test concentrations of DMSO were 1% and 0.5%. The concentrations of the excipients contained in the solutions at the two relatively high concentrations 500 and 250 µM for the preparation of lyophilized powder of artemether were used as solvent controls.
(§6) The positive control was an anti-cancer drug adriamycin (ADM), which was set at three test concentrations (final concentrations) of 0.1, 1 and 10 µg/ml. To ADM stock solution (1 mg/ml) a certain amount of PRMI 1640 complete culture solution was added, to formulate a high-concentration solution, and each of the low-concentration solutions were formulated by proportionate dilutions from the high-concentration solution.
as §1, §2
(§7) Cells in logarithmic growth phase were taken, adjusted to a certain concentration and then added into a 96 well culture plate. After culture of adherent cells for a period until adherence, the test samples were added; and for suspension cells, the test samples were added after inoculation. 5 test concentrations 2, 10, 50, 250 and 500 µM were set, with 3 parallel wells for each concentration, 10 µl/well; the solvent controls were 0.5% and 1% of isovolumetric DMSO, and the positive controls was ADM at 3 concentrations 0.1, 1 and 10 µg/ml. The samples were loaded followed by culture for a period of time in an incubator at 37°C, 5% CO2, followed by addition of MTT (5 mg/ml) at 20 µl/well, and continued to be cultured for a period of time and added with a three-combined solution [10% SDS - 5% isobutanol - 0.012 mol/L HCl (W/V/V)]. After dissolving in uniformity, it was continued to be placed in the incubator at 37°C, 5% CO2 for a period of time, and the OD value of each well was determined under a wavelength of 570 nm with a microplate reader, according to which the results were calculated.
(§8) The cellular proliferation inhibition rate was calculated in accordance with the following equation: Inhibition rate (%) = (OD valuecontrol well-OD valuesample well)/OD valuecontrol well × 100% [formula]
(§9) When the inhibition rate of DMSO on cells was more than 15%, calculation was carried out using the following equation: Inhibition rate (%) = (OD valuesolvent group-OD valueadministered well)/OD valuesolvent group × 100% [formula]
as §3
(§10) According to the results of preliminary screening, further experiments were adjusted such that more sensitive cell lines were screened out. […]

[3] = test system: HT-29 cells; assay: modified MTT method, proliferation of HT-29 cells; conditions: Homo sapiens
Procedure: as §4, §5, §6, §1, §2, §7, §8, §9, §3, §10

[4] = test system: K562 cells; assay: modified MTT method, proliferation of K562 cells; conditions: Homo sapiens, read-out: IC50 on the growth of K562 cells
Procedure: as §4, §5, §6, §1, §2, §7, §8, §9, §3

[5] = test system: HL-60 cells; assay: modified MTT method, proliferation of HL-60 cells; conditions: Homo sapiens, read-out: IC50 on the growth of HL-60 cells
Procedure: as §4, §5, §6, §1, §2, §7, §8, §9, §3

[6] = test system: PC-3 cells; assay: modified MTT method, proliferation of PC-3 cells; conditions: Homo sapiens, read-out: IC50 on the growth of PC-3 cells
Procedure: as §4, §5, §6, §1, §2, §7, §8, §9, §3

[7] = test system: A549 cells; assay: modified MTT method, proliferation of A549 cells; conditions: Homo sapiens, read-out: IC50 on the growth of A549 cells
Procedure: as §4, §5, §6, §1, §2, §7, §8, §9, §3

[8] = test system: MKN-28 cells; assay: modified MTT method, proliferation of MKN-28 cells; conditions: Homo sapiens, MKN-28, 72 h, secondary screening
Procedure: as §4, §5, §6, §1, §2, §7, §8, §9, §3, §10

## C[C@H]1[C@H](OC(=O)CCC(=O)O)O[C@@H]2O[C@@]3(C)CC[C@H]4[C@H](C)CC[C@@H]1[C@@]24OO3 [artesunate]
[1]
  inhibitory effect in vitro: only shows inhibitory effect
[2]; Batch 1, read-out: IC50 on the growth of Hep2 cells (72 h)
  IC50: 119 µM
[2]; Batch 2, read-out: IC50 on the growth of Hep2 cells (72 h)
  IC50: 93.2 µM
[2]; Batch 3, read-out: IC50 on the growth of Hep2 cells (72 h)
  IC50: 212 µM
[2]; average, read-out: IC50 on the growth of Hep2 cells (72 h)
  IC50: 149 µM
[3]; HT-29, 24 h, preliminary screening, Batch 1, 24 h, read-out: IC50 on the growth of HT-29 cells
  IC50: > 1000 µM
[3]; HT-29, 24 h, preliminary screening, Batch 2, 24 h, read-out: IC50 on the growth of HT-29 cells
  IC50: 323 µM
[3]; HT-29, 48 h, preliminary screening, Batch 1, 48 h, read-out: IC50 on the growth of HT-29 cells
  IC50: > 1000 µM
[3]; HT-29, 48 h, preliminary screening, Batch 2, 48 h, read-out: IC50 on the growth of HT-29 cells
  IC50: > 1000 µM
[3]; HT-29, 72 h, preliminary screening, Batch 1, 72 h, read-out: IC50 on the growth of HT-29 cells
  IC50: > 1000 µM
[3]; HT-29, 72 h, preliminary screening, Batch 2, 72 h, read-out: IC50 on the growth of HT-29 cells
  IC50: 438 µM
[3]; HT-29, 72 h, secondary screening, 72 h, Batch 1, read-out: IC50 on the growth of HT-29 cells (72 h)
  IC50: 328 µM
[3]; HT-29, 72 h, secondary screening, 72 h, Batch 2, read-out: IC50 on the growth of HT-29 cells (72 h)
  IC50: 306 µM
[3]; HT-29, 72 h, secondary screening, 72 h, Batch 3, read-out: IC50 on the growth of HT-29 cells (72 h)
  IC50: 200 µM
[3]; HT-29, 72 h, secondary screening, 72 h, average, read-out: IC50 on the growth of HT-29 cells (72 h)
  IC50: 225 µM
[4]; K562, 24 h, Batch 1, 24 h
  IC50: > 1000 µM
[4]; K562, 24 h, Batch 2, 24 h
  IC50: > 1000 µM
[4]; K562, 24 h, Batch 3, 24 h
  IC50: 494 µM
[4]; K562, 48 h, Batch 1, 48 h
  IC50: 322 µM
[4]; K562, 48 h, Batch 2, 48 h
  IC50: > 1000 µM
[4]; K562, 48 h, Batch 3, 48 h
  IC50: 141 µM
[4]; K562, 72 h, Batch 1, 72 h
  IC50: 39.3 µM
[4]; K562, 72 h, Batch 2, 72 h
  IC50: > 1000 µM
[4]; K562, 72 h, Batch 3, 72 h
  IC50: 90.1 µM
[5]; HL-60, 24 h, Batch 1, 24 h
  IC50: > 1000 µM
[5]; HL-60, 24 h, Batch 2, 24 h
  IC50: 269 µM
[5]; HL-60, 48 h, Batch 1, 48 h
  IC50: > 1000 µM
[5]; HL-60, 48 h, Batch 2, 48 h
  IC50: 39.5 µM
[5]; HL-60, 72 h, Batch 1, 72 h
  IC50: > 1000 µM
[5]; HL-60, 72 h, Batch 2, 72 h
  IC50: 145 µM
[6]; PC-3, 24 h, Batch 1, 24 h
  IC50: > 1 mM
[6]; PC-3, 24 h, Batch 2, 24 h
  IC50: > 1 mM
[6]; PC-3, 48 h, Batch 1, 48 h
  IC50: > 1 mM
[6]; PC-3, 48 h, Batch 2, 48 h
  IC50: > 1 mM
[6]; PC-3, 72 h, Batch 1, 72 h
  IC50: > 1 mM
[6]; PC-3, 72 h, Batch 2, 72 h
  IC50: > 1 mM
[7]; A549, 24 h, Batch 1, 24 h
  IC50: > 1000 µM
[7]; A549, 24 h, Batch 2, 24 h
  IC50: > 1000 µM
[7]; A549, 48 h, Batch 1, 48 h
  IC50: > 1000 µM
[7]; A549, 48 h, Batch 2, 48 h
  IC50: 272 µM
[7]; A549, 72 h, Batch 1, 72 h
  IC50: > 1000 µM
[7]; A549, 72 h, Batch 2, 72 h
  IC50: 225 µM
[8]; Average, read-out: IC50 on the growth of MKN-28 cells (72 h)
  IC50: 27.9 µM
[8]; Batch 1, read-out: IC50 on the growth of MKN-28 cells (72 h)
  IC50: 35.3 µM
[8]; Batch 2, read-out: IC50 on the growth of MKN-28 cells (72 h)
  IC50: 28.1 µM
[8]; Batch 3, read-out: IC50 on the growth of MKN-28 cells (72 h)
  IC50: 21.4 µM
